Test results: publication PMC11790914, “Chemogenomics for steroid hormone receptors (NR3)” (Communications Chemistry, 2025)
“And” between values parts separate entries of the source, which are not always exact repeats. Equal entries are not always repeated. “Also recorded” adds a separate entry of the source.

Columns and labels:
HEK293T cells [1] = test: Cytotoxicity: necrosis induction (red fluorescent dye for permeable plasma membranes); type: cell-based; settings: 24 h, necrotic cell count normalized to 0.1% DMSO, single replicates;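 also: compounds applied in DMEM high glucose with 0.1% FCS and 0.1% DMSO, necrotic HEK293T cells counted by red staining of cells whose plasma membranes had become permeable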
NR1I3 (CAR) = molecular target: T1, NR1I3 (CAR) (Homo sapiens, UniProt Q14994); test: Gal4 hybrid reporter gene assay CAR; type: cell-based; settings: n=3
T1 construct: expressed in transfected cells; host or cells: HEK293T
T1 sequence (Q14994 109-352 limits assumed): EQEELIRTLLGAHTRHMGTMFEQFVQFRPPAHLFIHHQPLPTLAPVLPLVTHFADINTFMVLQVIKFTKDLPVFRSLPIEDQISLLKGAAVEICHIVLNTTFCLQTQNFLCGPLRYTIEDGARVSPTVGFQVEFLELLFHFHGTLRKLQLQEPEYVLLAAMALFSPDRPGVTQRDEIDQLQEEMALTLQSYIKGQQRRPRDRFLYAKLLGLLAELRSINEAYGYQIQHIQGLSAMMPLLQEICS
Method: Reference ligands are listed in the methods section.
HEK293T cells (ATCC, Manassas, Virgina, USA; #CRL-3216) were cultured to a maximal confluence of 70–80% in DMEM, high glucose, supplemented with 10% FCS, sodium pyruvate (1 mM), penicillin (100 U/mL), and streptomycin (100 μg/mL) at 37 °C and 5% CO2 (v/v), and seeded in clear 96-well plates (4 × 10^4 cells per well). After 20–24 h, medium was changed to Opti-MEM without supplements and the cells were transiently transfected using Lipofectamine™ LTX/Plus™ Reagents (Invitrogen, Carlsbad, California, USA; #15338100) according to the manufacturer’s protocol with pFR-Luc (reporter gene; Stratagene, Agilent Technologies, Santa Clara, California, USA; #219050), pRL-SV40 (control gene for normalization of transfection efficiency and cell growth; Promega, Fitchburg, Wisconsin, USA; #E2231) and one pFA-CMV-hNR-LBD clone coding for the hinge region and ligand binding domain (LBD) of the human NR of interest. Five hours after transfection, the cells were incubated with the NR3 CG compound candidates at the recommended concentrations by changing the medium to Opti-MEM supplemented with penicillin (100 µ/mL) and streptomycin (100 µg/mL) additionally containing 0.1% DMSO and the respective test compound or 0.1% DMSO alone as untreated control. Firefly (reporter) and renilla (control) luminescence were measured after 14–16 h incubation using the Dual-Glo® Luciferase Assay System (Promega, Fitchburg, Wisconsin, USA; #E2980) according to manufacturer’s protocol on a Tecan Spark® 10M multimode microplate reader (Tecan Group AG, Männedorf, Switzerland). To obtain relative light units (RLU) firefly luminescence was divided by renilla luminescence and multiplied by 1000. Fold activation was obtained by dividing the mean RLU of a test sample by the mean RLU of the DMSO (0.1%) control. Experiments were performed in singlets in at least three biologically independent repeats. […]

FGFR3 = molecular target: T2, FGFR3 (Homo sapiens, UniProt P22607); test: Liability panel screening by DSF: FGFR3; type: binding; settings: DSF, 20 µM, n=2; for ΔTm at 20 µM: read-out: Mean ΔTM FGFR3
T2 construct: made in house
T2 sequence (P22607 23-806, species assumed): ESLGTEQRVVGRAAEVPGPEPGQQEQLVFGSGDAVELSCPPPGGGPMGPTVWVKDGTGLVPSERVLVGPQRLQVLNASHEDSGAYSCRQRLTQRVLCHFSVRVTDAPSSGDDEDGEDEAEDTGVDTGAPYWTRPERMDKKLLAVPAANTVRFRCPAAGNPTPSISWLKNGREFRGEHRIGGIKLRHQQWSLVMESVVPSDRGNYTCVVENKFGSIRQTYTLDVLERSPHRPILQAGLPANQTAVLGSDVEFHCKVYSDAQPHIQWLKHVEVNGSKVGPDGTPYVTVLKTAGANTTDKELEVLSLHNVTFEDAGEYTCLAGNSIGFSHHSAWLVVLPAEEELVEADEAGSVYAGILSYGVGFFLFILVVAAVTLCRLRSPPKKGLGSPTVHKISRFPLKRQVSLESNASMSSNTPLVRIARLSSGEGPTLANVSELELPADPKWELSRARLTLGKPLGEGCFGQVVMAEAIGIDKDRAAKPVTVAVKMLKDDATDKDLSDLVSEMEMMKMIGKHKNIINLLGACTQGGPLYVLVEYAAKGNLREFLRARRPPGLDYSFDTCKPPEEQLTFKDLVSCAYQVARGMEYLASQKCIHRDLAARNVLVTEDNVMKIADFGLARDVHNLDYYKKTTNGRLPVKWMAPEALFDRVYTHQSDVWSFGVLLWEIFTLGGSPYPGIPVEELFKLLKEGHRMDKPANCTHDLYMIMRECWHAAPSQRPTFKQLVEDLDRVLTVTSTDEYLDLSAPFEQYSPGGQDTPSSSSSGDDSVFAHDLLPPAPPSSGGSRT
Outline: (§1)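 Thermal shift: in-house recombinant protein at 2 µM in 10 mM HEPES pH 7.5 with 500 mM NaCl, SYPRO Orange 1:1000, heated at 3 °C/min to 85 °C in technical duplicates. Tm is the Boltzmann inflection point, reported as ∆Tm in K.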

BRD4 = molecular target: T3, BRD4 (Homo sapiens, UniProt O60885); test: Liability panel screening by DSF: BRD4; type: binding; settings: DSF, 20 µM, n=2; for ΔTm at 20 µM: read-out: Mean ΔTM BRD4
T3 construct: This panel comprised ten highly ligandable kinases and bromodomains; made in house
Outline: as §1

[2] = cited from earlier work; for Other off-target at recom. conc.: known off-target outside the NR family at the recommended concentration; for Other off-target at recom. conc. / NR off-target at recom. conc.: ref Supplementary Table 1 (superscript references); for NR off-target at recom. conc.: known NR off-target at the recommended concentration; for Reason for exclusion: number of annotated off-targets: other targets with annotated bioactivities at ≤10 µM in previously published dataset
HEK293T cells [3] = test: Cytotoxicity: metabolic activity (WST-8 / CCK-8 assay); settings: single replicates
HEK293T cells [4] = test: Evaluation of cytotoxicity (overall: growth-rate, metabolic activity, apoptosis, necrosis); type: cell-based; settings: 24 h; for effects on growth-rate, metabolic activity and necrosis: HEK293T, budesonide (3 µM), others at tested concentration
Method: The selection of 40 CG candidates was acquired from commercial vendors (purity ≥95%) and applied to initial toxicity screening. Cytotoxicity was determined in HEK293T cells considering growth-rate, metabolic activity as well as apoptosis and/or necrosis induction to evaluate suitability of the compounds for CG application in cellular settings (Fig. 3a–d, Supplementary Fig. 1, Supplementary Data 1). The candidates were generally well tolerated at concentrations >>EC50/IC50 that we recommend for CG application with only four compounds showing mild toxic effects. […] In terms of cytotoxicity, all candidates thus appeared suitable for inclusion in an NR3 CG set.

[5] = 0.3 µM, HEK293T, 24 h, WST-8, normalized to 0.1% DMSO
[6] = 3 µM, HEK293T, 24 h, WST-8, normalized to 0.1% DMSO
[7] = 1 µM, HEK293T, 24 h, WST-8, normalized to 0.1% DMSO

For `CC/C(=C(\c1ccc(O)cc1)c1ccc(OCCN(C)C)cc1)c1ccccc1` [(Z)-4-Hydroxytamoxifen], the “Necrosis induction [NI]” value (HEK293T cells [1]; 0.3 µM) was 0.97 and 1.43 and 0.88 and 1.20, the “Necrosis induction [NI]” value (HEK293T cells [1]; 3 µM) was 1.55 and 1.35 and 1.14 and 1.44 and the “Activity on NR targets outside NR3 family [mean log10(fold reporter gene activity)] NR1I3 (CAR)” value (NR1I3 (CAR); 3 µM, vs. DMSO ctrl) was 1.13 log10(fold reporter gene activity). The ΔTm at 20 µM (FGFR3) was 0.53 °C, the ΔTm at 20 µM (BRD4) was -3.37 °C and the “Other off-target at recom. conc.” value [2] was “PLD1 and PLD2”. For the same molecule, the “Metabolic activity [MA]” value (HEK293T cells [3]; [5]) was 1.00 and 1.02 and 0.89 and 0.98 and 0.96 and 0.95 and 1.06 and 0.84 and the “Metabolic activity [MA]” value (HEK293T cells [3]; [6]) was 0.88 and 0.94 and 0.92 and 0.98 and 0.96 and 0.89 and 1.00 and 0.84.

For `CC/C(=C(/c1ccc(/C=C/C(=O)O)cc1)c1ccc2[nH]ncc2c1)c1ccc(F)cc1Cl` [ARN810], the ΔTm at 20 µM (FGFR3) is given as -5.4 °C, the ΔTm at 20 µM (BRD4) is given as -0.16 °C and the “NR off-target at recom. conc.” value [2] is given as “NR3C1; also recorded: NR3C2; also recorded: NR3C3; also recorded: NR3C4”. For the same molecule, the “Other off-target at recom. conc.” value [2] was “GABAA and DAT”, the “Reason for exclusion: number of annotated off-targets” value (“Reason for exclusion: number” for short) [2] was over 5 off-targets and the “Metabolic activity [MA]” value (HEK293T cells [3]; 1 µM, DMSO 0.1% = 1.00) was 0.99 and 1.09 and 0.98 and 0.97 and 1.01 and 1.03.

For `C[C@@H]1Cc2c([nH]c3ccccc23)[C@@H](c2c(F)cc(/C=C/C(=O)O)cc2F)N1CC(C)(C)F` [AZD9496], the “Necrosis induction [NI]” value (HEK293T cells [1]; 1 µM) was 1.09 and 0.96 and 0.78 and 2.03, the ΔTm at 20 µM (FGFR3) was 0.58 °C and the ΔTm at 20 µM (BRD4) was 0.36 °C. The “effects on growth-rate, metabolic activity and necrosis” value (HEK293T cells [4]) was “without relevant effects” and the “Metabolic activity [MA]” value (HEK293T cells [3]; [7]) was 1.04 (3×) and 1.02 and 0.97 and 0.99 and 1.00 (2×).

In the case of `COc1ccc(-c2coc3cc(O)cc(O)c3c2=O)cc1` [Biochanin A], the “Activity on NR1I3 (CAR)” value (NR1I3 (CAR); 10 µM) is reported as -0.24 mean log10(fold reporter gene activity), the “Mean ΔTM FGFR3” value (FGFR3) is reported as 1.13 K and the “Mean ΔTM BRD4” value (BRD4) is reported as 0.32 K. For the same molecule, the “Reason for exclusion: number” value [2] was over 5 off-targets and the “Metabolic activity [MA]” value (HEK293T cells [3]; 10 µM, DMSO 0.1% = 1.00) was 0.87 and 0.81 and 1.01 and 0.90 and 1.15 and 0.98.

In the case of `CCCC1O[C@@H]2C[C@H]3[C@@H]4CCC5=CC(=O)C=C[C@]5(C)[C@H]4[C@@H](O)C[C@]3(C)[C@]2(C(=O)CO)O1` (stereo partly shown) [Budesonide], the ΔTm at 20 µM (FGFR3) is reported as -0.77 °C, the ΔTm at 20 µM (BRD4) is reported as -1.67 °C and the “effects on growth-rate, metabolic activity and necrosis” value (HEK293T cells [4]) is reported as “without relevant effects”. The “Reason for exclusion: number” value [2] was over 5 off-targets, the “Metabolic activity [MA]” value (HEK293T cells [3]; 0.3 µM, DMSO 0.1% = 1.00) was 1.02 and 0.97 and 1.07 and 0.99 and 1.12 and 1.03 and the “Metabolic activity [MA]” value (HEK293T cells [3]; 3 µM, DMSO 0.1% = 1.00) was 0.86 and 0.88 and 1.03 (2×) and 1.13 and 0.99.

In the case of `CCN(CC)c1ccc(/C=N/NC(=O)c2ccc(O)cc2)cc1` [DY131], the “Necrosis induction [NI]” value (HEK293T cells [1]; 3 µM) is reported as 0.73 and 0.89 and 0.91 and 0.92, the ΔTm at 20 µM (FGFR3) is reported as 0.00876 °C and the ΔTm at 20 µM (BRD4) is reported as -0.92 °C. For the same molecule, the “Metabolic activity [MA]” value (HEK293T cells [3]; [6]) was 0.98 and 0.95 (2×) and 0.82 and 0.96 and 0.93 and 0.87 and 0.92.

With `CC/C(=C(/CC)c1ccc(O)cc1)c1ccc(O)cc1` [Diethylstilbestrol] the “Necrosis induction [NI]” value (HEK293T cells [1]; 0.3 µM) was 0.86 and 0.98 and 1.34, the “Necrosis induction [NI]” value (HEK293T cells [1]; 3 µM) was 0.69 and 0.58 and 0.64 and 0.72 and the ΔTm at 20 µM (FGFR3) was -8.29 °C. The ΔTm at 20 µM (BRD4) was -4.78 °C, the “Cytotoxicity in HEK293T cells” value (HEK293T cells [4]; 0.3 µM) was “non-toxic” and the “Metabolic activity [MA]” value (HEK293T cells [3]; [5]) was 1.04 (3×) and 0.90 and 0.95 and 1.03 and 0.96 and 1.14. The “Metabolic activity [MA]” value (HEK293T cells [3]; [6]) was 0.90 and 0.94 and 1.10 and 1.00 (2×) and 0.60 and 0.78.

In the case of `Cc1ccc2c(NC[C@](O)(CC(C)(C)c3cc(F)cc4c3OCC4)C(F)(F)F)cccc2n1` [Mapracorat], the “Necrosis induction [NI]” value (HEK293T cells [1]; 1 µM) is reported as 1.18 and 1.03 and 0.88 and 0.99, the ΔTm at 20 µM (FGFR3) is reported as -1.28 °C and the ΔTm at 20 µM (BRD4) is reported as -0.11 °C. For the same molecule, the “Metabolic activity [MA]” value (HEK293T cells [3]; [7]) was 1.04 and 1.02 (2×) and 0.95 and 0.98 (2×) and 0.94 and 1.03.

With `CC#C[C@]1(O)CC[C@H]2[C@@H]3CCC4=CC(=O)CCC4=C3[C@@H](c3ccc(N(C)C)cc3)C[C@@]21C` [Mifepristone] the “Necrosis induction [NI]” value (HEK293T cells [1]; 3 µM) was 1.14 and 0.95 and 0.92 and 0.99, the ΔTm at 20 µM (FGFR3) was 0.14 °C and the ΔTm at 20 µM (BRD4) was -2.39 °C. For the same molecule, the “Metabolic activity [MA]” value (HEK293T cells [3]; [6]) was 1.08 and 1.01 and 1.00 and 1.09 and 1.04 and 1.03 and 1.16 (2×).

With `COc1cc(/C=C(\C#N)C(=O)Nc2nnc(C(F)(F)F)s2)ccc1OCc1ccc(C(F)(F)F)cc1C(F)(F)F` [XCT790] the “Necrosis induction [NI]” value (HEK293T cells [1]; 1 µM) was 0.92 and 0.82 and 0.84 and 0.79, the ΔTm at 20 µM (FGFR3) was 0.83 °C and the ΔTm at 20 µM (BRD4) was -2.31 °C. The “Metabolic activity [MA]” value (HEK293T cells [3]; [7]) was 1.06 and 0.99 and 0.98 and 1.09 and 1.00 and 1.02 and 1.05 and 1.01.

In the case of `C/C=C1\C(=O)C[C@H]2[C@@H]3CCC4=CC(=O)CC[C@]4(C)[C@H]3CC[C@]12C` [Z-Guggulsterone], the “Activity on NR1I3 (CAR)” value (NR1I3 (CAR); 3 µM) is listed as -0.48 mean log10(fold reporter gene activity), the “Mean ΔTM BRD4” value (BRD4) is listed as -2.62 K and the “NR off-target at recom. conc.” value [2] is listed as “NR1H4; also recorded: NR1I2; also recorded: NR3A1; also recorded: NR3C1; also recorded: NR3C2”. The “Reason for exclusion: number” value [2] was over 5 off-targets and the “Metabolic activity [MA]” value (HEK293T cells [3]; 3 µM, DMSO 0.1% = 1.00) was 1.00 and 0.94 and 1.08 and 1.06 and 1.18 and 1.15.
